Values joined by “and” are separate entries in the source; they are usually repeats but may differ in a detail not shown here. Equal values may be shown once.
Key:
alpha1 adrenoceptors = target: T1, alpha1 adrenoceptors (Rattus norvegicus, UniProt P15823); test: Affinity for alpha1 adrenoceptors: displacement of tritiated prazosin on rat cardiac membranes; type: binding; settings: Ki from IC50 by Cheng and Prusoff, read-out: Inhibition constants at alpha-1-adrenoceptor (Ki)
T1 construct: from tissue; host or cells: rat cardiac membranes
T1 sequence (P15823 1-515): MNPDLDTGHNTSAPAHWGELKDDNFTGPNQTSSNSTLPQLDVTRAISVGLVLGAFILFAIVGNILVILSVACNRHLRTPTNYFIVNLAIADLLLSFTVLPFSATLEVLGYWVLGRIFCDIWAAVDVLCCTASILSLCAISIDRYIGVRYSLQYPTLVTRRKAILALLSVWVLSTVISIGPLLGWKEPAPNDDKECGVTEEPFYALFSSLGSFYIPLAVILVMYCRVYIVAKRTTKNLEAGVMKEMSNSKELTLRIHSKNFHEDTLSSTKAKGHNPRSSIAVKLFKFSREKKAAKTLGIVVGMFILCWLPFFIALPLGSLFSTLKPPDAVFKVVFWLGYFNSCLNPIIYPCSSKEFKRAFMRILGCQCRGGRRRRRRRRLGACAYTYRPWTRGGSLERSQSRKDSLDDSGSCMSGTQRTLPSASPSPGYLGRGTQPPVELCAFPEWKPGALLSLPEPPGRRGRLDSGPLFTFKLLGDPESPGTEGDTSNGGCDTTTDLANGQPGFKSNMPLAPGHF
Experimental: The affinity of compounds of the general formula I for alpha1 adrenoceptors was established using the method described by R. S. Williams, D. F. Dukes and […] in J. Cardiovasc. Pharmacol. 3, 522-531 (1981). In this method the competitive displacement of tritiated prazosin (2-(4-(2-furoyl)-1-piperazinyl)-4-amino-6,7-dimethoxy-quinazoline) on rat-cardiac membranes by the test substances is measured, and the IC50 (50% inhibition concentration) is determined as that concentration which brings about a 50% inhibition of the specific binding of tritiated prazosin to the alpha1 adrenoceptors in rat cardiac membranes.
The concentration-independent inhibitor constants K1 -alpha1 were determined from the IC50 values as stated by Y. Cheng and H. W.Prusoff in Biochem. Pharmacol. 22, 3099-3108 (1973).

5-HT-1A receptors = target: T2, 5-HT-1A receptors (Rattus norvegicus, UniProt P19327); test: Affinity for 5-HT-1A receptors: displacement of tritiated 8-OH-DPAT on rat brain membranes; type: binding; settings: Ki from IC50 by Cheng and Prusoff, read-out: Inhibition constants at 5-HT1A-receptor (Ki)
T2 construct: 5-HT-1A receptors in rat brain membranes; from tissue; host or cells: rat brain membranes
T2 sequence (P19327 1-422): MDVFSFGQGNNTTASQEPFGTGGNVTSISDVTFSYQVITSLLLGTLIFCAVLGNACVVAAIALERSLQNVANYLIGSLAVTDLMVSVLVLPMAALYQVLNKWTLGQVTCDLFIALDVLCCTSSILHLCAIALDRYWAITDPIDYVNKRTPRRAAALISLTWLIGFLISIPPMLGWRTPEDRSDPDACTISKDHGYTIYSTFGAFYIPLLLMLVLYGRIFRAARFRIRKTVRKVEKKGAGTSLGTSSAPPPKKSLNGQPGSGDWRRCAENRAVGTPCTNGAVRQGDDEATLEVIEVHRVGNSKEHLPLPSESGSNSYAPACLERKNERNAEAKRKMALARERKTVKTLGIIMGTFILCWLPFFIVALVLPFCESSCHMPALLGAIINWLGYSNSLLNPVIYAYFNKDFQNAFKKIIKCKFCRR
Experimental: The affinity of compounds of the general formula I for 5-HT-1A receptors was determined by the method described by H. Gozlan, S. Elmestikawy, L. Pichat, J. Glowinski and M. Hamon in Nature 305, 140-142 (1983). In this method the competitive displacement of tritiated 8-OH-DPAT (8-hydroxy-(di-n-propylamino)tetralin) on rat brain membranes by the test substances is measured, and the IC50 (50% inhibition concentration) is determined as that concentration which brings about a 50% inhibition of the specific binding of tritiated 8-OH-DPAT to 5-HT-1A receptors in rat brain membranes.
The concentration-independent inhibitor constants K1 -alpha1 and K1 -5HT-1A were determined from the IC50 values as stated by Y. Cheng and H. W. Prusoff in Biochem. Pharmacol. 22, 3099-3108 (1973).

SMILES | Ki (alpha1 adrenoceptors) | Ki (5-HT-1A receptors)
CCN(CCN1CCN(c2ccccc2OC)CC1)c1cnn(C)c(=O)c1 [2-Methyl-5-(ethyl-(2-(4-(2-methoxyphenyl)piperazinyl-1)ethyl)amino)-3(2H)-pyridazinone] | 20.6 nM | 24.2 nM
COc1ccc(C)cc1N1CCN(CCNc2c(Cl)cnn(C)c2=O)CC1 [2-Methyl-5-chloro-4-((2-(4-(2-methoxy-5-methylphenyl)piperazinyl-1)ethyl)amino)-3(2H)-pyridazinone] | 6.01 nM | 85.1 nM
COc1ccc(C)cc1N1CCN(CCNc2ccnn(C)c2=O)CC1 [2-Methyl-4-((2-(4-(2-methoxy-5-methylphenyl)piperazinyl-1)ethyl)amino)-3(2H)-pyridazinone] | 73.6 nM | 186 nM
COc1ccccc1N1CCN(CCNc2cnn(C(C)(C)C)c(=O)c2)CC1 [2-t-Butyl-5-((2-(4-(2-methoxyphenyl)piperazinyl-1)ethyl)amino)-3(2H)-pyridazinone] | 6.03 nM | 65.8 nM
Cn1nccc(NCCN2CCN(c3ccccc3O)CC2)c1=O [2-Methyl-4-((2-(4-(2-hydroxyphenyl)piperazinyl-1)ethyl)amino)-3(2H)-pyridazinone] | 65.5 nM | 36.5 nM
Cn1nccc(NCCN2CCN(c3cccc(C(F)(F)F)c3)CC2)c1=O [2-Methyl-4-((2-(4-(3-trifluoromethylphenyl)piperazinyl-1)ethyl)amino-3(2H)-pyridazinone] | 175 nM | 4.56 nM
Cn1ncc(NCCN2CCN(c3ccccc3)CC2)cc1=O [2-Methyl-5-((2-(4-phenylpiperazinyl-1)ethyl)amino)-3(2H)-pyridazinone] | 157 nM | 274 nM
Cn1nccc(NCCN2CCN(c3ccccc3)CC2)c1=O [2-Methyl-4-((2-(4-phenylpiperazinyl-1)ethyl)amino)-3(2H) pyridazinone] | 90.3 nM | 261 nM
Cn1ncc(NCCN2CCN(c3ccccc3)CC2)c(Cl)c1=O [2-Methyl-4-chloro-5-((2-(4-phenylpiperazinyl-1)ethyl)amino)-3(2H)-pyridazinone] | 4.05 nM | 106 nM
COc1cc(C)ccc1N1CCN(CCNc2cnn(C)c(=O)c2)CC1 [2-Methyl-5-((2-(4-(2-methoxy-4-methylphenyl)piperazinyl-1)ethyl)amino)-3(2H)-pyridazinone] | 207 nM | 814 nM
Cc1ccc(N2CCN(CCNc3cnn(C)c(=O)c3Cl)CC2)c(O)c1 [2-Methyl-4-chloro-5-((4-(2-hydroxy-4-methylphenyl)piperazinyl-1)ethyl)amino)-3(2H)-pyridazinone] | 20.8 nM | –
CCOc1ccccc1N1CCN(CCCNc2cc(Cl)nn(C)c2=O)CC1 [2-Methyl-6-chloro-(3-(4-(4-(2-ethoxyphenyl)piperazinyl-1)propyl)amino)-3(2H)-pyridazinone] | 6.5 nM | –
Cn1nccc(NCCN2CCN(c3ccccc3F)CC2)c1=O [2-Methyl-4-((2-(4-(2-fluorophenyl)piperazinyl-1)ethyl)amino) -3(2H)-pyridazinone] | 21.4 nM | –
CCOc1ccccc1N1CCN(CCNc2cnn(C)c(=O)c2)CC1 [2-Methyl-5-((2-(4-(2-ethoxyphenyl)piperazinyl-1)ethyl)amino)-3(2H)-pyridazinone] | 103 nM | –
COc1ccccc1N1CCN(CCCCNc2ccn[nH]c2=O)CC1 [4-((4-(4-(2-Methoxyphenyl)piperazinyl-1)butyl)amino) -3(2H)-pyridazinone] | 4.64 nM | –
COc1ccccc1N1CCN(CCCCNc2cnn(C)c(=O)c2)CC1 [2-Methyl-5-((4-(4-(2-methoxyphenyl)piperazinyl-1)butyl)amino)-3(2H)-pyridazinone] | 5.38 nM | –
Cn1ncc(NCCN2CCN(c3ccccc3OCc3ccccc3)CC2)c(Cl)c1=O [2-Methyl-4-chloro-5-((2-(4-(2-benzyloxyphenyl)piperazinyl-1)ethyl)amino)-3(2H)-pyridazinone] | 2 nM | –

Now from value to molecule:

Ki (alpha1 adrenoceptors) | Ki (5-HT-1A receptors) | SMILES
17.3 nM | 118 nM | COc1ccccc1N1CCN(CCNc2cnn(CCN(C)C)c(=O)c2Cl)CC1 [2-(Dimethylaminoethyl)-4-chloro-5-((2-(4-(2-methoxyphenyl)piperazinyl-1)ethyl)amino)-3(2H)-pyridazinone]
7.57 nM | 63.2 nM | COc1ccccc1N1CCN(CCNc2cnn(C)c(=O)c2Cl)CC1 [2-methyl-4-chloro-5-((2-(4-(2-methoxyphenyl)-1-piperazinyl)ethyl)amino)-3(2H)-pyridazinone]
128 nM | 55.8 nM | COc1ccccc1N1CCN(CCNc2cnn(CCO)c(=O)c2)CC1 [2-Hydroxyethyl-5-((2-(4-(2-methoxyphenyl)piperazinyl-1)ethyl)amino)-3(2H)-pyridazinone]
12.8 nM | 39.4 nM | COc1ccccc1N1CCN(CCNc2cnn(C(C)(C)C)c(=O)c2Cl)CC1 [2-t-Butyl-4-chloro-5-((2-(4-(2-methoxyphenyl)piperazinyl-1)ethyl)amino)-3(2H)-pyridazinone]
3.48 nM | 1.4 nM | COc1ccccc1N1CCN(CCCNc2c(Cl)cnn(C)c2=O)CC1 [2-methyl-5-chloro-4-((3-(4-(2-methoxyphenyl)-1-piperazinyl)propyl)amino)-3(2H)-pyridazinone]
1.33 nM | 16.2 nM | COc1ccccc1N1CCN(CCNc2c(Br)cnn(C)c2=O)CC1 [2-Methyl-5-bromo-4-((2-(4-(2-methoxyphenyl)-1-piperazinyl)ethyl)amino)-3(2H)-pyridazinone]
28.2 nM | 398 nM | Cn1ncc(NCCN2CCN(c3ccccc3F)CC2)c(Cl)c1=O [2-Methyl-4-chloro-5-((2-(4-(2-fluorophenyl)piperazinyl-1)ethyl)amino)-3(2H)-pyridazinone]
2.42 nM | 25.6 nM | COc1ccccc1N1CCN(CCNc2c(Cl)cnn(CCO)c2=O)CC1 [2-Hydroxyethyl-5-chloro-4-((2-(4-(2-methoxyphenyl)piperazinyl-1)ethyl)amino)-3(2H)-pyridazinone]
31.4 nM | 478 nM | COc1cc(C)ccc1N1CCN(CCNc2cnn(C)c(=O)c2Cl)CC1 [2-Methyl-4-chloro-5-((2-(4-(2-methoxy-4-methylphenyl)piperazinyl-1)ethyl)amino)-3(2H)-pyridazinone]
32.8 nM | – | Cn1ncc(NCCCN2CCN(c3ccccc3F)CC2)c(Cl)c1=O [2-Methyl-4-chloro-5-((3-(4-(2-fluorophenyl)piperazinyl-1)propyl)amino)-3(2H)-pyridazinone]
24.7 nM and 40.5 nM | – | COc1ccccc1N1CCN(CCCNc2ccnn(C)c2=O)CC1 [2-Methyl-4-((3-(4-(2-methoxyphenyl)piperazinyl-1)propyl)amino-3(2H)-pyridazinone]
437 nM | – | COc1ccccc1N1CCN(CCNc2ccnn(CCN(C)C)c2=O)CC1 [2-(2-Dimethylaminoethyl)-4-((2-(4-(2-methoxyphenyl)piperazinyl-1)ethyl)amino)-3(2H)-pyridazinone]
229 nM | – | COc1ccccc1N1CCN(CCNc2cnn(CCN(C)C)c(=O)c2)CC1 [2-(2-Dimethylaminoethyl)-5-((2-(4-(2-methoxyphenyl)piperazinyl-1)ethyl)amino)-3(2H)-pyridazinone]
60.8 nM | – | COc1ccccc1N1CCN(CCNc2ccnn(C(C)(C)C)c2=O)CC1 [2-t-Butyl-4-((2-(4-(2-methoxyphenyl)piperazinyl-1)ethyl)amino)-3(2H)-pyridazinone]

— US5034391A, “Piperazinylalkyl-3(2H)-pyridazinones and the use thereof as agents lowering blood pressure” (CL Pharma Aktiengesellschaft, priority 1988, dated 1991)
